Tests used:
[1] = Chronic toxicity, rectal suppositories: indexes of peripheral blood; conditions: male rats; for Basophiles / Juveniles: 1 month/2 months (one value given)
Description: The experiments were conducted on inbred rats. The experimental animals were selected in groups by a method of random sampling taking into account the body mass as a determining index; 24 males or 24 females for one preparation from compounds 2, 15, 23, 34, 37 investigated in one dose.
Two doses of preparations used in the experiments: 50 mg/kg and 500 mg/kg. Before the administration, the suppositories were softened by heating in a glass water bath at a temperature of 38-39° C., the soft mass was collected in tuberculin syringe in a volume of 1 ml, a needle with oliva was attached to the syringe, and the preparatory mass was introduced into the rectum of the animal for a depth of 1.5-2.0 cm. The animals of the control group were administered with sterile medical liquid paraffin in a volume corresponding to the volume of the investigated suppository. A complete course of administration of drugs to the animals was two months. A complex of laboratory diagnostic investigations was carried out one month after the beginning of the administration of the preparation to the animal—in a middle of the course (8 animals), two months after ending the course (8 animals) and three months after ending the recovery period of one month (8 animals). The mass of the body of the rats in the first month of administration of the preparation was determined weekly, and then once in two weeks. On the basis of the dynamics of an index of the mass of the animal body, the volume of preparation being administered was corrected taking into account the test dose.

[2] = tested on: embyronic fibroblasts of mouse NIH-3T3; assay: Endocellular pHi of fibroblasts by microspectrofluorimetry (FDA, BCECF-AM); type: cell-based; conditions: for rise of pHi: fibroblasts in an attached spread state; for increase of pHi: 20 minutes
Description: The effect of the compounds according to the invention on the endocellular pH, embyronic fibroblasts of mouse NIH-3T3 supplied by the All-Russian Collection of Cellular Cultures of the Institute of Cytology of the Russian Academy of Sciences St. Petersburg was investigated. The cells were grown in the DMEM (Sigma) medium containing 2.2 g/l of sodium bicarbonate with addition of 80.0 mkg/ml of gentamicin and 10.0% embryonal veal serum at a temperature of 37° C. in an atmosphere containing 5.0% of carbon dioxide. For these experiments use was also made of a medium buffer with 5.0 mM of HEPES and 15.0 mM of sodium bicarbonate without serum or with addition of 5.0% serum. The cells were calculated with the help of a hemocytometer. A share of the dead cells was determined by colouring trypan blue.
The measurements of the endocellular pHi were carried out with the help of colorants FDA (Sigma) and BCECF-AM (Calbiochem) on a microspectrofluorimeter by a standard technique (Koshevoy Yu. V., Akatov V. S., Grobova M. E. Microspectrofluorimeter for measuring endocellular pH (micro pH)”. Devices and equipment for studies in the field of physical-and-chemical biology and biotechnology. Pushchino, 1990. P. 8-14).
The cells at a temperature of 37° C. were colored within 5 minutes with 5.0 mkM PDA that before the colouring was prepared from a 10.0 mM solution in acetone by dilution for 30 minutes in a phosphatic buffer to 0.1 mM or 2.0 mkM 1.0 mM solution BCECF-AM in DMSO.
The two-wave method of determining pHi was used based on the ratio intensities of fluorescence of the cells on two wavelengths (Akatov V. S. et all), “Endocellular pH and substrate dependence of proliferation of fibroblasts of Chinese hamster, Cytology, 1991, 33 (7), p. 86-94). The fluorescence was excited by light at λ=490 nm, the emission was recorded simultaneously with two photomultipliers on wavelengths λ=535 nm and λ=570 nm. The K-ratio of the fluorescence on two wavelengths was determined with a deduction of the background fluorescence of the medium near the investigated cells for 40-60 individual cells, which are then averaged taking into account the measurement error. A thermostatically controlled table was used that allowed measurements to be conducted at a temperature of 37° C. An account was taken for the photodynamic damage of the pigmented cells during-long-time continuous illumination by excited light. The readings were taken from a section of the preparation exposed to light for not more than 5 minutes.
The calibration curves for determining the absolute pHi values by magnitude K were constructed using the Thomas technique (Thomas J. A., Bushbaum R. N., Zimniak A. w Racker E. “Intracellular pH measurements in Ehrlich ascites tumor cells utilizing spectroscopic probe generated in situ”, Biochemistry, 1979, v. 18, p. 2210-2218), for which case the pigmented cells treated for 5-10 minutes with carboxyacidic nigericyn (Calbiochem) at a concentration of 5-10 mkg/ml was placed in a solution with a high content of potassium—130 mM KCl, 1.0 mM MgCl2, 20.0 mM of HEPES) and with pH values from 6.2 to 7.6. The K values were measured in the media with different pH assuming that pHi of the cells equals to the pH of the medium due to the action of nigericyn, which exchanges potassium ions for protons and at a high content of potassium in the medium counterbalances the pH of the medium and cells. Calibration curves were used based on the fluorescence of same medium with addition of 5.0 mkM of fluorescence or BCECF were used to the control the stability of the of the instrument readings.
The correctness of the technique was confirmed in the experiments on measurements of pH values of cells treated with protonofor monencine raising pH of the cells due to replacement of sodium ions by protons, and by determining the dependence of the change of pHi on the change of the pH of the medium. […]

thymus [3] = assay: Morphine abstinence model: thymus condition; type: in vivo, rats; conditions: compound alone
[4] = tested on: synthase of nitrogen oxide (NOC); assay: Morphine abstinence model: activity of synthase of nitrogen oxide (radiometric, [3H]L-citrulline); type: in vivo, rats Wistar
thymus [5] = assay: Morphine abstinence model: thymus condition; type: in vivo, rats; conditions: morphinized rats then compound
Description: The effect of the compounds according to the invention on the condition of the thymus of the rats was also investigated: a control group, an experimental group of morphinized animals and an experimental group of animals were first morphinized and then injected with the compounds according to the invention. The experiment was carried out similarly to that described above.

[6] = suppositories 50 mg/kg, 1 month
[7] = suppositories 50 mg/kg, 2 months
[8] = suppositories 500 mg/kg, 1 month
[9] = suppositories 500 mg/kg, 2 months
[10] = medium with 10.0% blood serum, 0.02 mkg/ml, suspension
[11] = medium with 10.0% blood serum, 0.2 mkg/ml, suspension
[12] = medium with 10.0% blood serum, 2.0 mkg/ml, suspension
[13] = medium with 10.0% blood serum, 20.0 mkg/ml, suspension
[14] = medium without blood serum, 0.02 mkg/ml
[15] = medium without blood serum, 0.2 mkg/ml
[16] = medium without blood serum, 2.0 mkg/ml
[17] = medium without blood serum, 20.0 mkg/ml
[18] = medium without blood serum, 200 mkg/ml
[19] = medium without blood serum, 1000 mkg/ml
[20] = compound alone 20.0 mg/kg intramuscularly
[21] = morphinized rats then compound 20.0 mg/kg intramuscularly

Structure (SMILES): Nc1ccnc2c(=O)n([C@@H]3O[C@H](CO)[C@@H](O)[C@H]3O)[nH]c(=O)c12 [Compound 2, 4-amino-7-(β-D-ribofuranosile)pyrido[2,3-d]-6H-pyridazine-5,8-dione]
- Average volume of erythrocytes [1, 6]: 83.4 ± 1.4 Mkm^3
- Coagulation, time [1, 6]: 145 ± 16 s
- Eosinophiles [1, 6]: 3.4 ± 0.6%
- Erythrocytes [1, 6]: 5.60 ± 2 mln/mm^3
- Haematocrite [1, 6]: 47.8 ± 1.3%
- Hemoglobin [1, 6]: 10.5 ± 0.1 mmol/L
- Leukocyte [1, 6]: 16.0 ± 1.4 thousand/mm^3
- REE [1, 6]: 1.9 ± 0.3 mm/h
- Reticulocytes [1, 6]: 2.8 ± 0.2/2.8 ± 0.2%
- Stab neutrophil [1, 6]: 0.8 ± 0.3%
- Thrombocytes [1, 6]: 659 ± 26
- Basophiles ([1]; suppositories 50 mg/kg): 0%
- Juveniles ([1]; suppositories 50 mg/kg): 0%
- Average volume of erythrocytes [1, 7]: 77.9 ± 2.1 Mkm^3
- Coagulation, time [1, 7]: 322 ± 18 s
- Eosinophiles [1, 7]: 4.2 ± 0.8%
- Erythrocytes [1, 7]: 6.1 ± 0.1 mln/mm^3
- Haematocrite [1, 7]: 47.9 ± 1.5%
- Hemoglobin [1, 7]: 11.1 ± 0.1 mmol/L
- Leukocyte [1, 7]: 19.3 ± 1.6 thousand/mm^3
- REE [1, 7]: 1.7 ± 0.1 mm/h
- Reticulocytes [1, 7]: 2.8 ± 0.2/2.8 ± 0.2%
- Stab neutrophil [1, 7]: 1.7 ± 0.3%
- Thrombocytes [1, 7]: 566 ± 20
- Average volume of erythrocytes [1, 8]: 85.2 ± 1.2 Mkm^3
- Coagulation, time [1, 8]: 149 ± 11 s
- Eosinophiles [1, 8]: 3.2 ± 0.9%
- Erythrocytes [1, 8]: 5.6 ± 0.1 mln/mm^3
- Haematocrite [1, 8]: 47.5 ± 1.6%
- Hemoglobin [1, 8]: 10.6 ± 0.1 mmol/L
- Leukocyte [1, 8]: 15.6 ± 0.8 thousand/mm^3
- REE [1, 8]: 2.1 ± 0.3 mm/h
- Reticulocytes [1, 8]: 2.9 ± 0.3%
- Stab neutrophil [1, 8]: 0.9 ± 0.2%
- Thrombocytes [1, 8]: 681 ± 26
- Basophiles ([1]; suppositories 500 mg/kg): 0%
- Juveniles ([1]; suppositories 500 mg/kg): 0%
- Average volume of erythrocytes [1, 9]: 72.0 ± 2.5 Mkm^3
- Coagulation, time [1, 9]: 305 ± 13 s
- Eosinophiles [1, 9]: 4.8 ± 1.6%
- Erythrocytes [1, 9]: 6.5 ± 0.1 mln/mm^3
- Haematocrite [1, 9]: 50.3 ± 2.0%
- Hemoglobin [1, 9]: 12.3 ± 0.3 mmol/L
- Leukocyte [1, 9]: 18.6 ± 1.9 thousand/mm^3
- REE [1, 9]: 1.9 ± 0.1 mm/h
- Reticulocytes [1, 9]: 3.5 ± 0.2%
- Stab neutrophil [1, 9]: 1.1 ± 0.3%
- Thrombocytes [1, 9]: 583 ± 25

Structure (SMILES): O=c1[nH]n([C@@H]2O[C@H](CO)[C@@H](O)[C@H]2O)c(=O)c2nc(O)cnc12.[Na].[Na] [Compound 23, disodium salt of 2-hydroxy-7-(β-D-ribofuranosile)pyrazine[2,3-Cl]-6H-pyridazine-5,8-dione]
- rise of pHi ([2]; 2.0 mkg/ml): 0.10 unit pHi
- rise of pHi ([2]; 20.0 mkg/ml): 0.07 unit pHi
- increase of pHi [2, 10]: do not initiate a change of pH
- increase of pHi [2, 11]: 0.1 unit pH
- increase of pHi [2, 12]: 0.12 unit pH
- increase of pHi [2, 13]: do not initiate a change of pH
- increase of pHi [2, 14]: no effect was found
- increase of pHi [2, 15]: no effect was found
- increase of pHi [2, 16]: 0.08 unit pHi
- increase of pHi [2, 17]: 0.08 unit pHi
- increase of pHi [2, 18]: no effect was found
- increase of pHi [2, 19]: no effect was found
- Average volume of erythrocytes [1, 6]: 82.7 ± 1.6 Mkm^3
- Coagulation, time [1, 6]: 150 ± 15 s
- Eosinophiles [1, 6]: 3.6 ± 0.5%
- Erythrocytes [1, 6]: 5.7 ± 0.1 mln/mm^3
- Haematocrite [1, 6]: 47.7 ± 1.2%
- Hemoglobin [1, 6]: 10.7 ± 0.1 mmol/L
- Leukocyte [1, 6]: 15.5 ± 1.1 thousand/mm^3
- REE [1, 6]: 1.7 ± 0.8 mm/h
- Reticulocytes [1, 6]: 2.7 ± 0.3%
- Stab neutrophil [1, 6]: 1.1 ± 0.5%
- Thrombocytes [1, 6]: 659 ± 18
- Basophiles ([1]; suppositories 50 mg/kg): 0%
- Juveniles ([1]; suppositories 50 mg/kg): 0%
- Average volume of erythrocytes [1, 7]: 77.5 ± 1.7 Mkm^3
- Coagulation, time [1, 7]: 313 ± 17 s
- Eosinophiles [1, 7]: 4.0 ± 0.7%
- Erythrocytes [1, 7]: 6.0 ± 0.2 mln/mm^3
- Haematocrite [1, 7]: 46.5 ± 1.3%
- Hemoglobin [1, 7]: 11.0 ± 0.1 mmol/L
- Leukocyte [1, 7]: 17.6 ± 1.2 thousand/mm^3
- REE [1, 7]: 1.5 ± 0.1 mm/h
- Reticulocytes [1, 7]: 2.8 ± 0.1%
- Stab neutrophil [1, 7]: 1.6 ± 0.2%
- Thrombocytes [1, 7]: 586 ± 28
- Average volume of erythrocytes [1, 8]: 83.5 ± 1.7 Mkm^3
- Coagulation, time [1, 8]: 156 ± 11 s
- Eosinophiles [1, 8]: 3.3 ± 0.7%
- Erythrocytes [1, 8]: 5.7 ± 0.2 mln/mm^3
- Haematocrite [1, 8]: 47.9 ± 1.1%
- Hemoglobin [1, 8]: 10.7 ± 0.2 mmol/L
- Leukocyte [1, 8]: 16.4 ± 1.1 thousand/mm^3
- REE [1, 8]: 2.0 ± 0.3 mm/h
- Reticulocytes [1, 8]: 3.1 ± 0.1%
- Stab neutrophil [1, 8]: 1.0 ± 0.3%
- Thrombocytes [1, 8]: 678 ± 18
- Basophiles ([1]; suppositories 500 mg/kg): 0%
- Juveniles ([1]; suppositories 500 mg/kg): 0%
- Average volume of erythrocytes [1, 9]: 82.1 ± 1.4 Mkm^3
- Coagulation, time [1, 9]: 3171 ± 12 s
- Eosinophiles [1, 9]: 3.8 ± 1.3%
- Erythrocytes [1, 9]: 6.4 ± 0.2 mln/mm^3
- Haematocrite [1, 9]: 49.4 ± 1.9%
- Hemoglobin [1, 9]: 12.3 ± 0.3 mmol/L
- Leukocyte [1, 9]: 20.1 ± 1.7 thousand/mm^3
- REE [1, 9]: 1.7 ± 0.3 mm/h
- Reticulocytes [1, 9]: 3.4 ± 0.1%
- Stab neutrophil [1, 9]: 1.6 ± 0.2%
- Thrombocytes [1, 9]: 628 ± 23

Structure (SMILES): O=c1[nH][nH]c(=O)c2nccnc12.[Li] [Compound 25, lithium salt of pyrazine[2,3-d]-6H-pyridazine-5,8-dione]
- Nitrites, thymus Supernatant, Administration of compounds (thymus [3]): 0.417 ± 0.02 nmol/mg of protein
- Thymus mass, Administration of compounds (thymus [3]): 254 ± 14 mg
- Activity of NOC, Hypothalamus, Control + Compound [4, 20]: 5.88 ± 0.27 pmol/min/mg of protein
- Activity of NOC, Mesencephalon, Control + Compound [4, 20]: 2.65 ± 0.43 pmol/min/mg of protein
- Activity of NOC, Hypothalamus, Control + Morphine + compound [4, 21]: 5.23 ± 0.27 pmol/min/mg of protein
- Activity of NOC, Mesencephalon, Control + Morphine + compound [4, 21]: 1.97 ± 0.27 pmol/min/mg of protein
- Nitrites, thymus Supernatant, Administration of morphine and compound (thymus [5]): 0.396 ± 0.02 nmol/mg of protein
- Thymus mass, Administration of morphine and compound (thymus [5]): 218 ± 17 mg

Structure (SMILES): Nc1ncc2c(=O)[nH][nH]c(=O)c2n1 [Compound 36, 2-amino-pyrimido[4,5-d]-6H-pyridazine-5,8-dione]
- rise of pHi ([2]; 2.0 mkg/ml): 0.10 unit pHi
- rise of pHi ([2]; 20.0 mkg/ml): 0.07 unit pHi
- increase of pHi [2, 10]: do not initiate a change of pH
- increase of pHi [2, 11]: 0.1 unit pH
- increase of pHi [2, 12]: 0.12 unit pH
- increase of pHi [2, 13]: do not initiate a change of pH
- increase of pHi [2, 14]: no effect was found
- increase of pHi [2, 15]: no effect was found
- increase of pHi [2, 16]: 0.08 unit pHi
- increase of pHi [2, 17]: 0.08 unit pHi
- increase of pHi [2, 18]: no effect was found
- increase of pHi [2, 19]: no effect was found
